A short description of series [1]: Inhibition of alpha-glucosidase (unknown origin) assessed as hydrolysis of pNP-alpha-Glu into pNP measured for 10 mins by spectrophotometric analysis. More on the design: species or system Homo sapiens.
Series [2] in a line: Induction of nitric oxide release at 10^-4 M after 1 hr by Griess assay in presence of L-cysteine relative to control. In kind it is physicochemical. As to conditions: 100 µM. A general note: The Griess reaction detects nitrite, a stable product of nitric oxide.
For a further series, the species on record is Homo sapiens. As to the kind of experiment: Potency index, ratio of apigenin IC50 to compound IC50 for alpha-glucosidase (unknown origin).

Each structure is given as a SMILES string. pIC50: −log10 of the molar value. A value given as a limit tells only on which side of the number the result lay.

One may read the pIC50 as −log10 of the IC50, conventionally taken in molar units. Regarding `O=c1cc(-c2ccc(OCCO[N+](=O)[O-])cc2)oc2cc(OCCO[N+](=O)[O-])cc(O)c12`, the pIC50 in series [1] is 5.11. In addition, the Activity in series [2] was 0.3%.
On to `O=c1cc(-c2ccccc2)oc2cc(OCCCCO[N+](=O)[O-])cc(O)c12`, for which the pIC50 in series [1] is 4.73.
On the same count and under the same terms, to `O=C(COc1cc(O)c2c(=O)cc(-c3ccccc3)oc2c1)OCCO[N+](=O)[O-]` belongs 4.62.
For `O=c1cc(-c2ccccc2)oc2cc(O)cc(O)c12` [CHRYSIN], the negative-log IC50 (pIC50) in series [1] is 4.11.
Same read-out and setting: with `CC(=O)Oc1cc(OCCO[N+](=O)[O-])cc2oc(-c3ccccc3)cc(=O)c12` the figure was less than 4.00.
In the case of `O=c1cc(-c2ccccc2)oc2cc(OCCO[N+](=O)[O-])cc(O)c12`, the pIC50 in series [1] was 4.52.
Same read-out and setting: with `O=C(COc1cc(O)c2c(=O)cc(-c3ccccc3)oc2c1)OCCCCCCO[N+](=O)[O-]` the figure was 5.47; with `CC(=O)Oc1cc(OCCCCCCO[N+](=O)[O-])cc2oc(-c3ccccc3)cc(=O)c12`, less than 4.00.
As to `O=C(COc1ccc(-c2cc(=O)c3c(O)cc(OCC(=O)OCCO[N+](=O)[O-])cc3o2)cc1)OCCO[N+](=O)[O-]`, the pIC50 in series [1] is 5.43. Further, in series [2], the Activity is 1.237%.
In the case of `O=c1cc(-c2ccccc2)oc2cc(OCCCCCCO[N+](=O)[O-])cc(O)c12`, the pIC50 in series [1] was 4.68.
The same measure, in the same setting: with `CC(=O)Oc1cc(OCCCCO[N+](=O)[O-])cc2oc(-c3ccccc3)cc(=O)c12` the figure was less than 4.00.
Take `O=C(COc1ccc(-c2cc(=O)c3c(O)cc(OCC(=O)OCCCCCCO[N+](=O)[O-])cc3o2)cc1)OCCCCCCO[N+](=O)[O-]`: the pIC50 in series [1] is 5.59. Further, in series [2], the Activity is reported as 1.147%.
Take `O=c1cc(-c2ccc(O)cc2)oc2cc(O)cc(O)c12` [APIGENIN]: in series [1], the pIC50 is 4.78.
Same read-out and setting: with `OC[C@H]1NC[C@H](O)[C@@H](O)[C@@H]1O` [DUVOGLUSTAT] the figure was 3.64.
For the molecule `O=[N+]([O-])OCC(CO[N+](=O)[O-])O[N+](=O)[O-]` [NITROGLYCERIN], in series [1], the pIC50 was less than 3.74. Besides, in series [2], the Activity amounted to 5.14%.
In the case of `O=C(COc1ccc(-c2cc(=O)c3c(O)cc(OCC(=O)OCCCCO[N+](=O)[O-])cc3o2)cc1)OCCCCO[N+](=O)[O-]`, the pIC50 in series [1] was 5.63. Also, in series [2], the Activity came out at 1.757%. Also, in the series filed under Homo sapiens, the Ratio IC50 amounted to 7.2.
Regarding `C[C@H]1O[C@H](O[C@H]2[C@H](O)[C@@H](O)[C@@H](O[C@H]3[C@H](O)[C@@H](O)C(O)O[C@@H]3CO)O[C@@H]2CO)[C@H](O)[C@@H](O)[C@@H]1N[C@H]1C=C(CO)[C@@H](O)[C@H](O)[C@H]1O` (stereo partly drawn) [ACARBOSE], the pIC50 in series [1] is 3.25.
Consider `O=c1cc(-c2ccc(OCCCCO[N+](=O)[O-])cc2)oc2cc(OCCCCO[N+](=O)[O-])cc(O)c12`, for which the pIC50 in series [1] was 5.30. Also, in series [2], the Activity is recorded as 0.24%.
Regarding `O=C(COc1cc(O)c2c(=O)cc(-c3ccccc3)oc2c1)OCCCCO[N+](=O)[O-]`, in series [1], the negative logarithm of the IC50 (pIC50) is 4.85.
For the molecule `O=c1cc(-c2ccc(OCCCCCCO[N+](=O)[O-])cc2)oc2cc(OCCCCCCO[N+](=O)[O-])cc(O)c12`, the pIC50 in series [1] is 5.34. Also, the Activity in series [2] was determined as 0.49%.

For the origin of these results see ChEMBL document CHEMBL3112481, “Synthesis, nitric oxide release, and α-glucosidase inhibition of nitric oxide donating apigenin and chrysin derivatives” (Bioorg Med Chem, 2014).
